Among the data in the NIST ThermoML archive (doi:10.1016/j.fluid.2006.08.004) are mass density, Normal boiling temperature and refractive index values, retold here.

Numbers after ± are expanded uncertainties.

The conditions of data set [1]: Liquid; for mass density: 298.15 K, 101.33 kPa; for Normal boiling temperature: Ebulliometric method (Recirculating still).
A short description of data set [2]: refractive index (Na D-line) (dimensionless). Conditions: 298.15 K; 101.33 kPa; Liquid; Standard Abbe refractometry.

Consider `CC(C)OC(C)C` [diisopropyl ether], for which, in data set [1], the mass density (usually the mass of a sample divided by its volume) is on record as 718.37 ± 1.2 kg/m3 and the Normal boiling temperature was determined as 68.38 ± 0.1 °C. Besides, in data set [2], the refractive index – broadly, a measure of how strongly the sample bends light – was 1.36512 ± 0.0007.
Taken in the same sequence, the figures for `CC(C)CC(C)(C)C` [2,2,4-trimethylpentane] were 687.72 ± 0.65 kg/m3, 99.18 ± 0.01 °C and 1.38887 ± 0.00068.
Taken in the same sequence, the figures for `CCO` [ethanol] were 785.09 ± 0.25 kg/m3, 78.29 ± 0.01 °C and 1.35926 ± 0.00068.
